In patent publication US11787780B2 (CORCEPT THERAPEUTICS INCORPORATED, priority 2020, dated 2023):

Biological target: glucocorticoid receptor (GR) recombinant ligand binding domain (LBD) (Homo sapiens (Human), UniProt P04150)
Assay: GR binding fluorescence polarisation (FP) assay
Details: displacement of fluorescently tagged ligand
Procedure: Binding of test compounds to the glucocorticoid receptor (GR) is determined using a fluorescence polarisation (FP) assay utilising a recombinant ligand binding domain (LBD) of GR. The test compounds are assessed by their ability to displace a fluorescently tagged ligand and detection of the resulting decrease in fluorescence polarisation.

Chain of glucocorticoid receptor (GR) recombinant ligand binding domain (LBD) (P04150 524-758): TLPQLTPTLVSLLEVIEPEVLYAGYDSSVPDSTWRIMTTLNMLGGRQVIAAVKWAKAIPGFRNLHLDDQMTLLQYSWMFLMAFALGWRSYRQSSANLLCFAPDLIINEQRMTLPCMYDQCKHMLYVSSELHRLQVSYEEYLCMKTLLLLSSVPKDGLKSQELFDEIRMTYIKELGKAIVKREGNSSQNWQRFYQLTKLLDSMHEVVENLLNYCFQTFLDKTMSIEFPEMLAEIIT

IC50 [nM]	Compound
1940	C[C@@H]1CN(C(=O)c2ccccc2)CCN1c1ccc2c(cnn2-c2ccc(F)cc2)c1 [Example 2, (R)-(4-(1-(4-fluorophenyl)-1H-indazol-5-yl)-3-methylpiperazin-1-yl)(phenyl)methanone]
206	CCCn1cc(S(=O)(=O)N2CCN(c3ccc4c(cnn4-c4ccc(F)cc4)c3)C3(CC3)C2)cn1 [Example 3, 1-(4-fluorophenyl)-5-(7-((1-propyl-1H-pyrazol-4-yl)sulfonyl)-4,7-diazaspiro[2.5]octan-4-yl)-1H-indazole]
2	CCCn1cc(S(=O)(=O)N[C@H]2CCN(c3cc4cnn(-c5ccc(F)cc5)c4cc3C)C2)cn1 [Example 4, (S)—N-(1-(1-(4-fluorophenyl)-6-methyl-1H-indazol-5-yl)pyrrolidin-3-yl)-1-propyl-1H-pyrazole-4-sulfonamide]
126	CCCn1cc(S(=O)(=O)N(C)[C@H]2CCN(c3cc4cnn(-c5ccc(F)cc5)c4cc3C)C2)cn1 [Example 5, (S)—N-(1-(1-(4-fluorophenyl)-6-methyl-1H-indazol-5-yl)pyrrolidin-3-yl)-N-methyl-1-propyl-1H-pyrazole-4-sulfonamide]
6110	Cc1cc2c(cnn2-c2ccc(F)cc2)cc1N1CCN(S(C)(=O)=O)CC1=O [Example 7, 1-(1-(4-fluorophenyl)-6-methyl-1H-indazol-5-yl)-4-(methylsulfonyl)piperazin-2-one]
527	CCCn1cc(S(=O)(=O)N2CC[C@@H](c3ccc4c(cnn4-c4ccc(F)cc4)c3)C[C@H]2C)cn1 [Example 9, 1-(4-fluorophenyl)-5-((2R,4R)-2-methyl-1-((1-propyl-1H-pyrazol-4-yl)sulfonyl)piperidin-4-yl)-1H-indazole]
258	CCCn1cc(S(=O)(=O)N2CC=C(c3cc4cnn(-c5ccc(F)cc5)c4cc3C)C[C@H]2C)cn1 [Example 11, (R)-1-(4-fluorophenyl)-6-methyl-5-(2-methyl-1-((1-propyl-1H-pyrazol-4-yl)sulfonyl)-1,2,3,6-tetrahydropyridin-4-yl)-1H-indazole]
236	CCCn1cc(S(=O)(=O)N2CC[C@@H](c3cc4cnn(-c5ccc(F)cc5)c4cc3C)C[C@H]2C)cn1 [Example 12, 1-(4-fluorophenyl)-6-methyl-5-((2R,4R)-2-methyl-1-((1-propyl-1H-pyrazol-4-yl)sulfonyl)piperidin-4-yl)-1H-indazole]
82	CCCn1cc(S(=O)(=O)N2CC[C@H](c3cc4cnn(-c5ccc(F)cc5)c4cc3C)C[C@H]2C)cn1 [Example 13, 1-(4-fluorophenyl)-6-methyl-5-((2R,4S)-2-methyl-1-((1-propyl-1H-pyrazol-4-yl)sulfonyl)piperidin-4-yl)-1H-indazole]
357	O=S(=O)(c1cnn(CC2CC2)c1)N1CCN(c2ccc3c(cnn3-c3ccc(F)cc3)c2)C[C@H]1CO [Example 14, (S)-(1-((1-(cyclopropylmethyl)-1H-pyrazol-4-yl)sulfonyl)-4-(1-(4-fluorophenyl)-1H-indazol-5-yl)piperazin-2-yl)methanol]
455	COC[C@@H]1CN(c2ccc3c(cnn3-c3ccc(F)cc3)c2)CCN1S(=O)(=O)c1cnn(CC2CC2)c1 [Example 15, (S)-5-(4-((1-(cyclopropylmethyl)-1H-pyrazol-4-yl)sulfonyl)-3-(methoxymethyl)piperazin-1-yl)-1-(4-fluorophenyl)-1H-indazole]
884	CCCn1cc(S(=O)(=O)N2CCC(C(=O)OCC)(c3ccc4c(cnn4-c4ccc(F)cc4)c3)CC2)cn1 [Example 21, Ethyl 4-(1-(4-fluorophenyl)-1H-indazol-5-yl)-1-((1-propyl-1H-pyrazol-4-yl)sulfonyl)piperidine-4-carboxylate]
857	CCCn1cc(S(=O)(=O)N2CCC(C(=O)N3CCCC3)(c3cc4cnn(-c5ccc(F)cc5)c4cc3C)CC2)cn1 [Example 22, (4-(1-(4-fluorophenyl)-6-methyl-1H-indazol-5-yl)-1-((1-propyl-1H-pyrazol-4-yl)sulfonyl)piperidin-4-yl)(pyrrolidin-1-yl)methanone]
67	Cn1cc(S(=O)(=O)C2CCN(c3ccc4c(cnn4-c4ccc(F)cc4)c3)CC2)cn1 [Example 33, 1-(4-fluorophenyl)-5-(4-((1-methyl-1H-pyrazol-4-yl)sulfonyl)piperidin-1-yl)-1H-indazole]
1100	Cn1cc(S(=O)(=O)N2CCN(c3ccc4c(cnn4-c4ccc(F)cc4)c3)[C@H](Cc3ccccc3)C2)cn1 [Example 34]
1810	C[C@@H]1CN(S(=O)(=O)C2CCCC2)CCN1c1ccc2c(cnn2-c2ccc(F)cc2)c1 [Example 35]
3550	C[C@H]1CN(S(=O)(=O)c2cnn(C)c2)CCN1c1ccc2c(cnn2-c2ccc(F)cc2)c1 [Example 36]
396	C[C@@H]1CN(c2ccc3c(cnn3-c3ccc(F)cc3)c2)CCN1S(=O)(=O)c1cnn(C)c1 [Example 37]
1950	C[C@H]1CN(c2ccc3c(cnn3-c3ccc(F)cc3)c2)CCN1S(=O)(=O)c1cnn(C)c1 [Example 38]
546	C[C@@H]1CN(c2ccc3c(cnn3-c3ccc(F)cc3)c2)CCN1S(=O)(=O)c1ccc(F)c(F)c1 [Example 40]
937	Cn1cc(S(=O)(=O)N2CCN(c3ccc4c(cnn4-c4ccc(F)cc4)c3)C[C@H]2Cc2ccccc2)cn1 [Example 41]
2320	CC(C)C[C@@H]1CN(c2ccc3c(cnn3-c3ccc(F)cc3)c2)CCN1S(=O)(=O)c1cnn(C)c1 [Example 42]
562	CC1(C)CN(c2ccc3c(cnn3-c3ccc(F)cc3)c2)CCN1S(C)(=O)=O [Example 45]
1130	CCCn1cc(S(=O)(=O)N2CCN(c3ccc4c(cnn4-c4ccc(F)cc4)c3)CC2(C)C)cn1 [Example 46]
1410	CS(=O)(=O)N1C[C@@H]2C[C@H]1CN2c1ccc2c(cnn2-c2ccc(F)cc2)c1 [Example 47]
8220	CCCn1cc(S(=O)(=O)N2CCN(c3ccc4c(cnn4-c4ccc(F)cc4)c3C)C[C@H]2C)cn1 [Example 49]

IC50 [nM]	Compound
360	C[C@@H]1CN(S(C)(=O)=O)[C@@H](C)CN1c1ccc2c(cnn2-c2ccc(F)cc2)c1 [Example 51]
700	COC(=O)C1CN(c2ccc3c(cnn3-c3ccc(F)cc3)c2)CCN1S(=O)(=O)c1cnn(CC2CC2)c1 (stereo not drawn) [Example 52]
244	C[C@@H]1CN(c2ccc3c(cnn3-c3ccc(F)cc3)c2)CCN1S(=O)(=O)c1cnn(C2CCOCC2)c1 [Example 53]
142	Cc1nn(C2CCCC2)cc1S(=O)(=O)N1CCN(c2ccc3c(cnn3-c3ccc(F)cc3)c2)C[C@H]1C [Example 54]
21	CCCn1cc(S(=O)(=O)N2C[C@H](C)N(c3ccc4c(cnn4-c4ccc(F)cc4)c3)C[C@H]2C)cn1 [Example 55]
249	CCCn1cc(S(=O)(=O)N2CCN(c3ccc4c(cnn4-c4ccc(F)cc4)c3)C[C@H]2C)c(C)n1 [Example 57]
431	C[C@@H]1CN(S(C)(=O)=O)[C@H](C)CN1c1ccc2c(cnn2-c2ccc(F)cc2)c1 [Example 62]
215	CCCNS(=O)(=O)N1CCN(c2ccc3c(cnn3-c3ccc(F)cc3)c2)C[C@H]1C [Example 63]
151	CC(C)Cn1cc(S(=O)(=O)N2CCN(c3ccc4c(cnn4-c4ccc(F)cc4)c3)C[C@H]2C)cn1 [Example 64]
429	CCCn1cc(S(=O)(=O)N2CCN(c3ccc4c(cnn4-c4ccc(F)cc4)c3)CC23CCC3)cn1 [Example 66]
1160	CCCn1cc(S(=O)(=O)N2CCN(c3cc4cnn(-c5ccc(F)cc5)c4cn3)CC23CC3)cn1 [Example 69]
238	CCCn1cc(S(=O)(=O)N2CCN(c3cnc4c(cnn4-c4ccc(F)cc4)c3)CC23CC3)cn1 [Example 71]
3740	CCCn1cc(S(=O)(=O)N2CCN(c3ccc4c(cnn4-c4ccc(F)cc4)n3)CC23CC3)cn1 [Example 72]
66	CCCn1cc(S(=O)(=O)N2CCN(c3cc4nnn(-c5ccc(F)cc5)c4cc3C)CC23CC3)cn1 [Example 74]
325	CCCn1cc(S(=O)(=O)N2CCN(c3cc4cnn(-c5ccc(OC)cc5)c4cc3C)C[C@H]2C)cn1 [Example 75]
83	CCCn1cc(S(=O)(=O)N2CCN(c3cc4cnn(-c5ccc(F)c(F)c5)c4cc3C)C[C@H]2C)cn1 [Example 76]
1040	CCCn1cc(S(=O)(=O)N2CCN(c3cc4cnn(-c5ccc(OC)nc5)c4cc3C)C[C@H]2C)cn1 [Example 77]
7230	Cc1cc2c(cnn2-c2ccc(F)cc2)cc1N1CCC2(CCCN2S(C)(=O)=O)CC1 [Example 88]
434	CCCn1cc(S(=O)(=O)N2CCCC23CCN(c2cc4cnn(-c5ccc(F)cc5)c4cc2C)CC3)cn1 [Example 89]
612	Cc1cc2c(cnn2-c2ccc(F)cc2)cc1N1CCC2(CCN(S(C)(=O)=O)CC2)C1 [Example 95]
2560	Cc1cc2c(cnn2-c2ccc(F)cc2)cc1N1CCC2(CCN(S(=O)(=O)c3cnn(C)c3)CC2)C1 [Example 96]
1810	CC(=O)N1CCN(c2ccc3c(cnn3-c3ccc(F)cc3)c2)[C@H](C)C1 [Example 97]
749	CC(=O)N1CCN(c2ccc3c(cnn3-c3ccc(F)cc3)c2)C[C@H]1Cc1ccccc1 [Example 98]
898	CC(=O)N1CCN(c2ccc3c(cnn3-c3ccc(F)cc3)c2)C[C@H]1CC(C)C [Example 99]
267	Cc1cc2c(cnn2-c2ccc(F)cc2)cc1N1CCN(C(=O)Nc2ccccc2)C2(CC2)C1 [Example 102]

Compound	IC50 [nM]
1-(4-fluorophenyl)-5-(4-(methoxymethyl)-1-((1-propyl-1H-pyrazol-4-yl)sulfonyl)piperidin-4-yl)-1H-indazole [Example 23]	1300
CS(=O)(=O)N1CC2CC(C1)N2c1ccc2c(cnn2-c2ccc(F)cc2)c1 [Example 48]	4050
CCCn1cc(S(=O)(=O)N2C3CCC2CN(c2cc4cnn(-c5ccc(F)cc5)c4cc2C)C3)cn1 [Example 83]	515
